Measurements: patent US11136324B2, “Substituted imidazoles as apoptosis signal regulating kinase 1 inhibitors” (Jiangsu Hansoh Pharmaceutical Group Co., Ltd., priority 2017, dated 2021)

Experiments:
[1] = Pharmacokinetic (PK) assay in mice; assay type: in vivo; details: Balb/c male mice, single intragastric administration, 5 mg/kg, plasma; for AUC(0-t) / AUC(0-inf) / half-life / MRT / Cmax: mouse, po; for AUC(0-t): read-out: Area under curve AUC0-t; for AUC(0-inf): read-out: Area under curve AUC0-∞; for half-life: read-out: Half-life t1/2 (converted); for MRT: read-out: Mean residence time MRT; for Cmax: read-out: Plasma concentration Cmax
Procedure: 2. Pharmacokinetic (PK) Assay in Mice
The pharmacokinetic test of the preferred examples of the present invention in mice was carried out in Balb/c male mice (Shanghai Jiesijie Laboratory Animal Co., LTD).
Administration mode: single intragastric administration.
Administration dosage: 5 mg/10 ml/kg.
Formulation: 0.5% CMC-Na, ultrasonic dissolution.
Sampling points: 0.5, 1, 2, 4, 6, 8 and 24 hours after administration.
1) 0.1 mL of blood was taken from the orbit, placed in a K2EDTA tube, and centrifuged for 5˜20 min at room temperature at 1000˜3000×g to separate the plasma, which was then stored at −80° C.
2) 160 μL of acetonitrile was added to 40 μL of plasma sample for precipitation, and then the mixture was centrifuged for 5˜20 minutes at 500˜2000×g.
3) 100 μL, of processed supernatant was taken and analyzed by LC/MS/MS assay to determine the concentration of the test compound.
LC-MS/MS Assay: • Liquid chromatography condition: Shimadzu LC-20AD pump • Mass spectrometry condition: AB Sciex API 4000 mass spectrometer • Chromatographic column: phenomenex Gemiu 5 μm C18 50×4.6 mm • Mobile phase: solution A was 0.1% aqueous formic acid solution, and solution B was acetonitrile • Flow rate: 0.8 mL/min • Elution time: 0-3.5 minutes gradient elution
The main parameters were calculated using WinNonlin 6.1.

ASK1 kinase = ASK1 kinase (Homo sapiens (Human), UniProt Q99683); assay: ASK1 enzymatic test (TR-FRET); assay type: biochemical; details: ASK1 kinase activity
ASK1 kinase, sequence (Q99683 whole entry): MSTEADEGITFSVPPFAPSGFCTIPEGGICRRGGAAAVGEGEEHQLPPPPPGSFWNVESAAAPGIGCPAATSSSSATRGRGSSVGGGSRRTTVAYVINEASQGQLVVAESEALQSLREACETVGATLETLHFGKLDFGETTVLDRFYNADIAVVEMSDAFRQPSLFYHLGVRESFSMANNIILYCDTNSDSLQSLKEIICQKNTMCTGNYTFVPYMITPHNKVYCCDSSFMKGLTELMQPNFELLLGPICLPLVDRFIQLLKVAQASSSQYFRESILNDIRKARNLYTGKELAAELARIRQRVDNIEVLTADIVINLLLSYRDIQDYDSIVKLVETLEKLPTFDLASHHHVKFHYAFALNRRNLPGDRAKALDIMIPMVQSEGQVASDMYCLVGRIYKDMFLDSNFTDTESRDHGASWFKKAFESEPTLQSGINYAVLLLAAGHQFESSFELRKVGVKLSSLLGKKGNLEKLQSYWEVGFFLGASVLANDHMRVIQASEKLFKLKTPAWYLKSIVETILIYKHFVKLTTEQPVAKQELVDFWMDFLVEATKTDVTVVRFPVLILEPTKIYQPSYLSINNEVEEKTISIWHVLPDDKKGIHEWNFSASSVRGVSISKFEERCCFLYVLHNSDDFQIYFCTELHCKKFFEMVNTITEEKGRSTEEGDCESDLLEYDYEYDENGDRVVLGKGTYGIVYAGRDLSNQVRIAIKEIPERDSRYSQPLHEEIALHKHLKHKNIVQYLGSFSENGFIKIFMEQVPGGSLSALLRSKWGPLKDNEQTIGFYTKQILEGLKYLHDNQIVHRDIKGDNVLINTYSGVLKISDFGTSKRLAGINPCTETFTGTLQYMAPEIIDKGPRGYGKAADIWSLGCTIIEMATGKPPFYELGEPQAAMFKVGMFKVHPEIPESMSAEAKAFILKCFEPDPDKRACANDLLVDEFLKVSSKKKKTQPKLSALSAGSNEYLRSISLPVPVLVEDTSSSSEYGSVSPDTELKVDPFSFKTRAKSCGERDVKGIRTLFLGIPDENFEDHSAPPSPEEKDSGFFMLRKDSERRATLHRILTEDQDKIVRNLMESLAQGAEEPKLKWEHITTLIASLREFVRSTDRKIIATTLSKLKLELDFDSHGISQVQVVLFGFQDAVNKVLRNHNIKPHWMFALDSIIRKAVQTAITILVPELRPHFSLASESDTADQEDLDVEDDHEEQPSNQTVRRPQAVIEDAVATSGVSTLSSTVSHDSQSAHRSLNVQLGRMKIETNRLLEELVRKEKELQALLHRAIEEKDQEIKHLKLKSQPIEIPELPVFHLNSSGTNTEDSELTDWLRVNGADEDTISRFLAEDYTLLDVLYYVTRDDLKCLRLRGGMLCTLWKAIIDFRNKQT
Procedure: In this test, the fluorescence-resonance energy transfer (TR-FRET) method was used to determine the inhibition effect of the test compounds on ASK1 kinase activity, and the half maximal inhibitory concentration IC50 of the compounds on ASK1 kinase activity was obtained.
1) 1˜5 μL of ASK1 enzyme solution was added to a 384-well plate, and the final concentration of the enzyme was 0.220 nM.
2) 1˜5 μL of gradient-diluted compound solution was added.
3) 1˜5 μL of a substrate mixture containing substrate polypeptides (final concentration: 100˜5000 nM) and ATP (final concentration: 100˜1000 uM) were added.
4) The mixture was incubated at room temperature for 0.5 to 5 hours.
5) 10 μL of EDTA and test solution containing labeled antibody were added, and the plate was incubated at room temperature for 2 to 24 hours.
6) The fluorescence signal value of each well was determined by a microplate reader at about 615 nm and 665 nm.
7) The inhibition rate was calculated by the fluorescence signal value.
8) The IC50 of the compound was obtained by curve fitting according to the inhibition rate at different concentrations.

Peak time tmax [1] | AUC(0-t) [1] | AUC(0-inf) [1] | half-life [1] | MRT [1] | Cmax [1] | IC50 (ASK1 kinase) | SMILES
1 h | 11700 ng·h/mL | 11800 ng·h/mL | 1 h | 2 h | 5060 ng/mL | 2.7 nM | Cc1cc(F)c(C(=O)Nc2cccc(-c3nnc4n3[C@H](C)CC4)n2)cc1-n1cnc(C(C)C)c1 [Example 13, (R)-2-Fluoro-5-(4-isopropyl-1H-imidazol-1-yl)-4-methyl-N-(6-(5-methyl-6,7-dihydro-5H-pyrrolo[2,1-c][1,2,4]triazol-3-yl)pyridin-2-yl)benzamide]
1 h | 21000 ng·h/mL | 21000 ng·h/mL | 1.3 h | 2.8 h | 6150 ng/mL | 9 nM | Cc1cc(F)c(C(=O)Nc2cccc(-c3nnc4n3[C@@H](C)CC4)n2)cc1-n1cnc(C(C)C)c1 [Example 14, (S)-2-Fluoro-5-(4-isopropyl-1H-imidazol-1-yl)-4-methyl-N-(6-(5-methyl-6,7-dihydro-5H-pyrrolo[2,1-c][1,2,4]triazol-3-yl)pyridin-2-yl)benzamide]
1 h | 13600 ng·h/mL | 13900 ng·h/mL | 1.4 h | 2 h | 6580 ng/mL | 4.1 nM | Cc1cc(F)c(C(=O)Nc2cccc(-c3nnc4n3[C@@H](C)CC4)n2)cc1-n1cnc(C(C)(C)C)c1 [Example 16, (S)-5-(4-(tert-Butyl)-1H-imidazol-1-yl)-2-fluoro-4-methyl-N-(6-(5-methyl-6,7-dihydro-5H-pyrrolo[2,1-c][1,2,4]triazol-3-yl)pyridin-2-yl)benzamide]
0.5 h | 129000 ng·h/mL | 130000 ng·h/mL | 2.8 h | 5.1 h | 19400 ng/mL | 4.1 nM | C=CC1CCc2nnc(-c3cccc(NC(=O)c4cc(-n5cnc(C6CC6)c5)c(C)cc4F)n3)n21 (stereo not shown) [Example 38, 5-(4-Cyclopropyl-1H-imidazol-1-yl)-2-fluoro-4-methyl-N-(6-(5-vinyl-6,7-dihydro-5H-pyrrolo[2,1-c][1,2,4]triazol-3-yl)pyridin-2-yl)benzamide]
1 h | 57200 ng·h/mL | 57700 ng·h/mL | 3.5 h | 5.8 h | 5890 ng/mL | 4.9 nM | Cc1cc(F)c(C(=O)Nc2cccc(-c3nnc4n3[C@H](CF)CC4)n2)cc1-n1cnc(C2CC2)c1 [Example 51, (S)-5-(4-Cyclopropyl-1H-imidazol-1-yl)-2-fluoro-N-(6-(5-(fluoromethyl)-6,7-dihydro-5H-pyrrolo[2,1-c][1,2,4]triazol-3-yl)pyridin-2-yl)-4-methylbenzamide]
1 h | 38600 ng·h/mL | 42500 ng·h/mL | 2.4 h | 3.6 h | 9940 ng/mL | 5 nM | CC[C@H]1CCc2nnc(-c3cccc(NC(=O)c4cc(-n5cnc(C6CC6)c5)c(C)cc4F)n3)n21 [Example 56, (S)-5-(4-Cyclopropyl-1H-imidazol-1-yl)-N-(6-(5-ethyl-6,7-dihydro-5H-pyrrolo[2,1-c][1,2,4]triazol-3-yl)pyridin-2-yl)-2-fluoro-4-methylbenzamide]

Further lines, the compound ahead of its results:

SMILES | Peak time tmax [1] | AUC(0-t) [1] | AUC(0-inf) [1] | half-life [1] | MRT [1] | Cmax [1] | IC50 (ASK1 kinase)
COC[C@@H]1CCc2nnc(-c3cccc(NC(=O)c4cc(-n5cnc(C6CC6)c5)c(C)cc4F)n3)n21 [Example 11, (S)-5-(4-Cyclopropyl-1H-imidazol-1-yl)-2-fluoro-N-(6-(5-(methoxymethyl)-6,7-dihydro-5H-pyrrolo[2,1-c][1,2,4]triazol-3-yl)pyridin-2-yl)-4-methylbenzamide] | 1 h | 29400 ng·h/mL | 29400 ng·h/mL | 1.1 h | 2.1 h | 13200 ng/mL | 10.6 nM
Cc1cc(F)c(C(=O)Nc2cccc(-c3nnc4n3CC(C)(C)C4)n2)cc1-n1cnc(C2CC2)c1 [Example 32, 5-(4-Cyclopropyl-1H-imidazol-1-yl)-N-(6-(6,6-dimethyl-6,7-dihydro-5H-pyrrolo[2,1-c][1,2,4]triazol-3-yl)pyridin-2-yl)-2-fluoro-4-methylbenzamide] | 1 h | 46400 ng·h/mL | 46400 ng·h/mL | 2.6 h | 3.9 h | 10900 ng/mL | 4.9 nM
Cc1cc(F)c(C(=O)Nc2cccc(-c3nnc4n3CC(C)C4)n2)cc1-n1cnc(C2CC2)c1 (stereo not shown) [Example 33, 5-(4-Cyclopropyl-1H-imidazol-1-yl)-2-fluoro-4-methyl-N-(6-(6-methyl-6,7-dihydro-5H-pyrrolo[2,1-c][1,2,4]triazol-3-yl)pyridin-2-yl)benzamide] | 0.5 h | 47900 ng·h/mL | 48600 ng·h/mL | 4.7 h | 5.9 h | 5170 ng/mL | 7.2 nM
Cc1cc(F)c(C(=O)Nc2cccc(-c3nnc4n3C[C@H](C)C4)n2)cc1-n1cnc(C2CC2)c1 [Example 34, (R)-5-(4-Cyclopropyl-1H-imidazol-1-yl)-2-fluoro-4-methyl-N-(6-(6-methyl-6,7-dihydro-5H-pyrrolo[2,1-c][1,2,4]triazol-3-yl)pyridin-2-yl)benzamide] | 1 h | 81100 ng·h/mL | 81200 ng·h/mL | 2.5 h | 4.4 h | 13500 ng/mL | 5.2 nM
Cc1cc(F)c(C(=O)Nc2cccc(-c3nnc4n3C(C(F)(F)F)CC4)n2)cc1-n1cnc(C2CC2)c1 (stereo not shown) [Example 41, 5-(4-Cyclopropyl-1H-imidazol-1-yl)-2-fluoro-4-methyl-N-(6-(5-(trifluoromethyl)-6,7-di hydro-5H-pyrrolo[2,1-c][1,2,4]triazol-3-yl)pyridin-2-yl)benzamide] | 1 h | 83900 ng·h/mL | 83900 ng·h/mL | 2 h | 4 h | 17100 ng/mL | 7.7 nM
CCC[C@@H]1CCc2nnc(-c3cccc(NC(=O)c4cc(-n5cnc(C6CC6)c5)c(C)cc4F)n3)n21 [Example 59, (R)-5-(4-Cyclopropyl-1H-imidazol-1-yl)-2-fluoro-4-methyl-N-(6-(5-propyl-6,7-dihydro-5H-pyrrolo[2,1-c][1,2,4]triazol-3-yl)pyridin-2-yl)benzamide] | 1 h | 19700 ng·h/mL | 20200 ng·h/mL | 1.4 h | 2.3 h | 7590 ng/mL | 2.9 nM
CCC[C@H]1CCc2nnc(-c3cccc(NC(=O)c4cc(-n5cnc(C6CC6)c5)c(C)cc4F)n3)n21 [Example 60, (S)-5-(4-Cyclopropyl-1H-imidazol-1-yl)-2-fluoro-4-methyl-N-(6-(5-propyl-6,7-dihydro-5H-pyrrolo[2,1-c][1,2,4]triazol-3-yl)pyridin-2-yl)benzamide] | 1 h | 29000 ng·h/mL | 29900 ng·h/mL | 1.3 h | 2.6 h | 9180 ng/mL | 6.6 nM
